Measurements reported in patent publication US10561672B2, “Stable fixed dose pharmaceutical composition comprising mometasone and olopatadine” (GLENMARK SPECIALTY S.A., priority 2013, dated 2020).

What was measured:
[1] = Clinical trial, single-dose cross-over: pharmacokinetics of mometasone furoate (Example 6); assay type: in vivo; conditions: single dose nasal spray, human subjects
From the text: (§1) The clinical trial was a randomized, single-center, single-dose, open-label, three-period, six-sequence, cross-over study to evaluate three treatments administered by nasal spray. […] The study consisted of a screening visit, 3 single-dose treatment periods with washout periods of 7 to 14 days between dosing in each treatment period, an early withdrawal visit if applicable, and a follow-up telephone call (or visit) 1 to 7 days after completing the third treatment period. A total of 30 subjects were randomized to 1 of 6 treatment sequences and received at least 1 dose of study drug. All 30 subjects were included in the safety analysis set and the pharmacokinetic subset. All but 2 subjects completed the study per protocol.

[2] = Clinical trial, single-dose cross-over: pharmacokinetics of olopatadine (Example 5); assay type: in vivo; conditions: single dose nasal spray, human subjects
From the text: as §1, with “as a” for “by”

Quantifiable concentrations observed until the last time point [1] | Quantifiable concentrations observed until the last time point [2] | Structure (SMILES)
72 h |  | C[C@@H]1C[C@H]2[C@@H]3CCC4=CC(=O)C=C[C@]4(C)[C@@]3(Cl)[C@@H](O)C[C@]2(C)[C@@]1(OC(=O)c1ccco1)C(=O)CCl [mometasone furoate]
 | 48 h | CN(C)CC/C=C1/c2ccccc2COc2ccc(CC(=O)O)cc21 [olopatadine]
